# Data taken from US11162944B2, “Compositions and methods” (priority 2015, dated 2021).
# Marks after values point to notes of the source that are not given here.
# What was measured:
# [1] = system: biomarker (antibody) in serum from patients with suspected TB (tuberculosis); assay: ELISA of 64 serum samples on three synthetic antigens (Example 6); type: binding, human; details: dilution 1 in 80
# Description: ELISA assays were carried out as known to those practiced in the art using 96 well plates. In the first procedure, the ELISA assay was carried out on 96-well microplates and the purified antigens were dissolved in n-hexane at a concentration of 62.5 μg/mL. The antigen solution was diluted and 50 μL was placed in each well. The plates were left to dry at room temperature overnight. Blocking was done with 0.5% casein/PBS (400 μL/well) and the plates were left to incubate at 25° C. for 1 h. The casein was aspirated using the LT-3500 plate washer and the plates flicked dry. Then the serum (1:20 dilution in 0.5% casein/PBS, pH 7.4) was added to the plate (50 μL/well) and left to incubate at 25° C. for 1 h. The serum was aspirated and washed three times with (casein/PBS, 400 μL/well) using the same plate washer and the plates were flicked dry again. After that, the secondary antibody, in the example given IgG Fc (1:1000 dilution in 0.5% casein/PBS) was added to the plate (50 μL/well) and the plates were left to incubate at 25° C. for 30 min. The plates were washed three times again with casein/PBS (400 μL/well) and dried. Then, the OPD substrate was added to the plates, which were left to incubate at 25° C. for 30 min. Finally, 2.5 M H2SO4 (50 μL/well) was added and the absorbances of each well were read at 492, 450 and 630 nm using an LT-4000 plate reader.
# Human serum used in this work was from the WHO sample bank. In this case, all the patients had presented at a hospital with the symptoms of TB. Clinical diagnosis was made on the basis of a series of standard assays.
# All measurements were taken as four replicates unless otherwise stated. These were averaged to provide the data in the tables which are for the value at 492 nm.
# A set of 64 samples of serum from patients attending a clinic with suspected TB (tuberculosis) in a high burden TB population was examined using ELISA. Samples 1-9 had been diagnosed as positive for infection with tuberculosis (TB+) on the basis of a range of assays including sputum smear and culture, and samples 10-64 as negative for infection with tuberculosis (TB−). An ELISA assay was carried out with three synthetic antigens having the structures:
# Cut-off values were set to identify all the positive samples with all three antigens, and the false positives were then identified in Table 3. […] 53 of the 55 negatives were correctly identified giving a specificity of 96%. The shaded results denote a result which is above the cut-off set for that particular antigen assay.
# wild-type BMDCs = assay: IL-6 secretion by bone marrow-derived dendritic cells, cytokine-specific ELISA; type: cell-based, mice; details: antigens at 100 μg/ml coated on plate, ISO as solvent, FIG. 1
# Description: The concentrations of cytokines in the cell-free medium from stimulation of bone marrow-derived dendritic cells were determined using standard cytokine-specific ELISA. BMDCs were generated from mice, by flushing out the femurs of mice into complete medium and pipetting vigorously to make a single-cell suspension. The glycolipids were coated to the bottom of 96 micro-well plates (100 μg/ml). BMDCs were added, and after 6 or 48 hours of incubation the supernatants were harvested.
# The first experiment was the IL-6 secretion by wild-type BMDCs from mice using compounds B, D, C and H (shown below) as antigens at 100 μg/ml, and isopropyl alcohol (ISO) as a solvent. Commercial trehalose-6,6-dimycolate (TDM), lipopolysaccharides (LPS), and trehalose-6,6-dibehenate (TDB) were used as a controls.
structure (smiles),measurement,setting,value
CCCCCCCCCCCCCCCCCCCCCCCC[C@@H](C(=O)OC[C@H]1O[C@H](OC)[C@@H](O)[C@@H]1O)[C@H](O)CCCCCCCCCCCC1CC1CCCCCCCCCCCCCC[C@H]1C[C@H]1CCCCCCCCCCCCCCCCCCCC (some centres unmarked) [Antigen 3],ELISA absorbance at 492 nm,[1]; sample 1 (TB+),0.74*
same,ELISA absorbance at 492 nm,[1]; sample 2 (TB+),0.76*
same,ELISA absorbance at 492 nm,[1]; sample 3 (TB+),0.99*
same,ELISA absorbance at 492 nm,[1]; sample 4 (TB+),0.97*
same,ELISA absorbance at 492 nm,[1]; sample 5 (TB+),0.99*
same,ELISA absorbance at 492 nm,[1]; sample 6 (TB+),1.39*
same,ELISA absorbance at 492 nm,[1]; sample 7 (TB+),1.97*
same,ELISA absorbance at 492 nm,[1]; sample 8 (TB+),1.67*
same,ELISA absorbance at 492 nm,[1]; sample 9 (TB+),1.09*
same,ELISA absorbance at 492 nm,[1]; sample 10 (TB−),0.59
same,ELISA absorbance at 492 nm,[1]; sample 11 (TB−),0.92*
same,ELISA absorbance at 492 nm,[1]; sample 12 (TB−),0.84*
same,ELISA absorbance at 492 nm,[1]; sample 13 (TB−),0.60
same,ELISA absorbance at 492 nm,[1]; sample 14 (TB−),1.30*
same,ELISA absorbance at 492 nm,[1]; sample 15 (TB−),0.64
same,ELISA absorbance at 492 nm,[1]; sample 16 (TB−),0.56
same,ELISA absorbance at 492 nm,[1]; sample 17 (TB−),0.81*
same,ELISA absorbance at 492 nm,[1]; sample 18 (TB−),0.68
same,ELISA absorbance at 492 nm,[1]; sample 19 (TB−),0.71*
same,ELISA absorbance at 492 nm,[1]; sample 20 (TB−),1.03*
same,ELISA absorbance at 492 nm,[1]; sample 21 (TB−),0.61
same,ELISA absorbance at 492 nm,[1]; sample 22 (TB−),0.66
same,ELISA absorbance at 492 nm,[1]; sample 23 (TB−),0.81*
same,ELISA absorbance at 492 nm,[1]; sample 24 (TB−),0.62
same,ELISA absorbance at 492 nm,[1]; sample 25 (TB−),0.21
same,ELISA absorbance at 492 nm,[1]; sample 26 (TB−),0.72*
same,ELISA absorbance at 492 nm,[1]; sample 27 (TB−),0.61
same,ELISA absorbance at 492 nm,[1]; sample 28 (TB−),0.38
same,ELISA absorbance at 492 nm,[1]; sample 29 (TB−),0.41
same,ELISA absorbance at 492 nm,[1]; sample 30 (TB−),0.39
same,ELISA absorbance at 492 nm,[1]; sample 31 (TB−),0.51
same,ELISA absorbance at 492 nm,[1]; sample 32 (TB−),0.91*
same,ELISA absorbance at 492 nm,[1]; sample 33 (TB−),0.42
same,ELISA absorbance at 492 nm,[1]; sample 34 (TB−),0.49
same,ELISA absorbance at 492 nm,[1]; sample 35 (TB−),0.38
same,ELISA absorbance at 492 nm,[1]; sample 36 (TB−),0.28
same,ELISA absorbance at 492 nm,[1]; sample 37 (TB−),0.55
same,ELISA absorbance at 492 nm,[1]; sample 38 (TB−),0.52
same,ELISA absorbance at 492 nm,[1]; sample 39 (TB−),0.35
same,ELISA absorbance at 492 nm,[1]; sample 40 (TB−),0.35
same,ELISA absorbance at 492 nm,[1]; sample 41 (TB−),0.66
same,ELISA absorbance at 492 nm,[1]; sample 42 (TB−),0.55
same,ELISA absorbance at 492 nm,[1]; sample 43 (TB−),0.30
same,ELISA absorbance at 492 nm,[1]; sample 44 (TB−),0.98*
same,ELISA absorbance at 492 nm,[1]; sample 45 (TB−),0.43
same,ELISA absorbance at 492 nm,[1]; sample 46 (TB−),0.31
same,ELISA absorbance at 492 nm,[1]; sample 47 (TB−),0.56
same,ELISA absorbance at 492 nm,[1]; sample 48 (TB−),0.32
same,ELISA absorbance at 492 nm,[1]; sample 49 (TB−),0.51
same,ELISA absorbance at 492 nm,[1]; sample 50 (TB−),0.37
same,ELISA absorbance at 492 nm,[1]; sample 51 (TB−),0.21
same,ELISA absorbance at 492 nm,[1]; sample 52 (TB−),0.36
same,ELISA absorbance at 492 nm,[1]; sample 53 (TB−),0.26
same,ELISA absorbance at 492 nm,[1]; sample 54 (TB−),0.27
same,ELISA absorbance at 492 nm,[1]; sample 55 (TB−),0.27
same,ELISA absorbance at 492 nm,[1]; sample 56 (TB−),0.73*
same,ELISA absorbance at 492 nm,[1]; sample 57 (TB−),0.37
same,ELISA absorbance at 492 nm,[1]; sample 58 (TB−),0.41
same,ELISA absorbance at 492 nm,[1]; sample 59 (TB−),0.45
same,ELISA absorbance at 492 nm,[1]; sample 60 (TB−),0.44
same,ELISA absorbance at 492 nm,[1]; sample 61 (TB−),0.41
same,ELISA absorbance at 492 nm,[1]; sample 62 (TB−),0.30
same,ELISA absorbance at 492 nm,[1]; sample 63 (TB−),0.25
same,ELISA absorbance at 492 nm,[1]; sample 64 (TB−),0.29
CCCCCCCCCCCCCCCCCCCCCCCCC(C(=O)OCC1OC(OCC2OC(OC)C(O)C2OC2OC(COC(=O)C(CCCCCCCCCCCCCCCCCCCCCCCC)C(O)CCCCCCCCCCCC3CC3CCCCCCCCCCCCCCC3CC3CCCCCCCCCCCCCCCCCCCC)C(O)C2O)C(O)C1O)C(O)CCCCCCCCCCCC1CC1CCCCCCCCCCCCCCC1CC1CCCCCCCCCCCCCCCCCCCC (centres unmarked) [H],IL-6 secretion by wild-type BMDCs,wild-type BMDCs,good level of stimulation
